# Data: patent EP0303483A2, “Novel lymphokine and compositions thereof” (THE UNIVERSITY OF BRITISH COLUMBIA, priority 1987, dated 1989)
# Tested on: BDF1 spleen cells
# Assay: CTL induction, PHA-P-mediated cytotoxicity assay (51Cr-labelled P815 targets), BDF1 spleen cells
# Assay type: cell-based, mice
# Conditions: 5 x 10³ BDF1 spleen cells
# Procedure: Cultures and Assays: The culture medium used was Iscove's Modified Dulbecco's medium supplemented with 10% fetal bovine serum (Bocknek, Rexdale, Ontario), 5 x 10⁻⁵M 2-mercaptoethanol, 50 U/ml of Penicillin and 50 µg/ml streptomycin. All cultures were incubated at 37°C in 5% CO₂ in humid air.
# For CTL assays, cultures were set up by incubating the indicated number of spleen cells, lymph node cells or thymocytes with the appropriate lymphokine in conical bottomed microtiter plates (Flow Laboratories, #76-023-05) as previously described by Teh et al, 1983, supra. Five days later the cultures were assessed for cytotoxic activity in phytohemaglutinin (PHA-P)-mediated cytotoxicity assay as described by Bevan and Cohn, J. Immunol 1975 114:559. This assay detects CTL of all specificities. A total of 3 x 10³ ⁵¹Cr-labelled P815 (H-2^d) mastocytoma target cells (available from ATCC®) and 10 µg/ml of PHA-P were added to each well. Spontaneous release during the 3.5 hr assay period was about 10% of the maximum releasable counts.
structure (smiles),measurement,setting,value
"CCCCCCCCCCCCCC(=O)O[C@@H]1[C@@H](C)[C@@]2(O)[C@@H](C=C(CO)C[C@]3(O)C(=O)C(C)=C[C@@H]23)[C@@H]2C(C)(C)[C@]12OC(C)=O [PMA, phorbol-12-myristate-13-acetate]",% specific lysis (M SE),PMA 0.03 ng/ml with rIL-2 20 U/ml,3.5 ± 1.5%
same,% specific lysis (M SE),PMA 0.1 ng/ml alone,-2.2 ± 1.4%
same,% specific lysis (M SE),PMA 0.1 ng/ml with rIL-2 20 U/ml,15.7 ± 5.1%
same,% specific lysis (M SE),PMA 0.3 ng/ml alone,-3.2 ± 1.7%
same,% specific lysis (M SE),PMA 0.3 ng/ml with rIL-2 20 U/ml,14.8 ± 3.3%
same,% specific lysis (M SE),PMA 1.0 ng/ml alone,-2.5 ± 0.9%
same,% specific lysis (M SE),PMA 1.0 ng/ml with rIL-2 20 U/ml,2.8 ± 1.3%
same,% specific lysis (M SE),PMA 3.0 ng/ml alone,-1.0 ± 1.8%
same,% specific lysis (M SE),PMA 3.0 ng/ml with rIL-2 20 U/ml,4.3 ± 1.4%
same,% specific lysis (M SE),PMA 10.0 ng/ml alone,-0.9 ± 1.6%
same,% specific lysis (M SE),PMA 10.0 ng/ml with rIL-2 20 U/ml,-0.4 ± 0.9%
